Reference: patent publication EP0229718A2, “Labelling blood cells” (AMERSHAM INTERNATIONAL plc, priority 1986, dated 1987)

What was measured:
inflammatory disease = experiment: Imaging of inflammatory disease in patients with labelled leucocytes (Example 6); assay type: in vivo
Protocol: (§1) Hexamethylpropylene-amineoxime (HMPAO) forms a lipid-soluble neutral complex with ^99mTc which is rapidly incorporated into leucocytes in vitro. In six patients with suspected or known inflammatory disease, a "mixed" leucocyte suspension isolated from 85 ml blood anticoagulated with acid-citrate-dextrose was labelled by ^99mTc-HMPAO with a mean efficiency of 47%, of which 78% was taken up by granulocytes. […] Four patients also received ¹¹¹In-labelled "pure" granulocytes.
(§2) This experiment is described in more detail in The Lancet, October 25 1986, pages 946-949.

[1] = test system: "mixed" leucocyte suspension; experiment: In vitro labelling of a mixed leucocyte suspension from patients (Example 6); assay type: cell-based
Protocol: as §1, §2

granulocyte recovery in blood (inflammatory disease; at 30-40 min, mean): 32%
Structure (SMILES): C/C(=N\[O-])[C@@H](C)[N-]CC(C)(C)C[N-][C@H](C)/C(C)=N/O.[O]=[99Tc+3] (racemic) [^99mTc-HMPAO]
image detail compared with ¹¹¹In-labelled "pure" granulocytes (inflammatory disease; four patients also received ¹¹¹In-labelled granulocytes): comparable or superior to the ¹¹¹In images
detection of inflammatory disease by imaging (inflammatory disease; six patients, from 30 min (five patients) or 3 h (sixth), remained positive at 20-24 h): All six patients were positive for inflammatory disease
retention of label in granulocytes in vitro ([1]; elution compared with other cell types): remained firmly labelled
share of the label taken up by granulocytes ([1]; of the cell-bound label): 78%
mean labelling efficiency ([1]; six patients, leucocytes from 85 ml blood anticoagulated with acid-citrate-dextrose): 47%
